Species on record: Rattus norvegicus
Experiment: Open TG-GATES - Regimen: Single
Format: toxicity, organism-based, Sprague-Dawley
Set-up: regimen Single, gender Male, age 6 weeks
Conditions: in vivo, po, 5 mg/kg, route gavage, dose level Low; for APTT / Bas / Eos / Fbg / Hb / Ht / Lym / MCH / MCHC / MCV / Mono / Neu / PT / Plat / RBC / Ret / WBC: tissue Blood; for KIDNEY_L / KIDNEY_R / KIDNEY_TOTAL: tissue Kidney; for LIVER: tissue Liver; for A/G / ALP / ALT / AST / BUN / CRE / Ca / Cl / DBIL / GLC / IP / K / LDH / Na / PL / RALB / TBIL / TC / TG / TP / gamma-GTP: tissue Plasma

CC(=N)S [THIOACETAMIDE]
TERMINAL_BW (3 h): 189.9 g
APTT (3 h): 17.2 s
Bas (3 h): 0%
Eos (3 h): 0.6%
Fbg (3 h): 225 mg/dL
Hb (3 h): 13.1 g/dL
Ht (3 h): 39.7%
Lym (3 h): 81.4%
MCH (3 h): 21.3 pg
MCHC (3 h): 32.9%
MCV (3 h): 64.6 fL
Mono (3 h): 6.4%
Neu (3 h): 11.4%
PT (3 h): 12.1 s
Plat (3 h): 105.8 x10_4/uL
RBC (3 h): 614.6 x10_4/ul
Ret (3 h): 9.2%
WBC (3 h): 119.1 x10_2/uL
KIDNEY_L (3 h): 0.9 g
KIDNEY_R (3 h): 0.9 g
KIDNEY_TOTAL (3 h): 1.7 g
LIVER (3 h): 8.7 g
A/G (3 h): 2.1
ALP (3 h): 842.8 IU/L
ALT (3 h): 31.2 IU/L
AST (3 h): 64 IU/L
BUN (3 h): 12.2 mg/dL
CRE (3 h): 0.5 mg/dL
Ca (3 h): 10.9 mg/dL
Cl (3 h): 103.4 meq/L
DBIL (3 h): 0 mg/dL
GLC (3 h): 179.8 mg/dL
IP (3 h): 9.2 mg/dL
K (3 h): 4.4 meq/L
LDH (3 h): 97.6 IU/L
Na (3 h): 138.2 meq/L
PL (3 h): 149.6 mg/dL
RALB (3 h): 3.8 g/dL
TBIL (3 h): 0.3 mg/dL
TC (3 h): 85.8 mg/dL
TG (3 h): 70.6 mg/dL
TP (3 h): 5.6 g/dL
gamma-GTP (3 h): 2 IU/L
TERMINAL_BW (6 h): 185.4 g
APTT (6 h): 17.8 s
Bas (6 h): 0%
Eos (6 h): 1%
Fbg (6 h): 237.8 mg/dL
Hb (6 h): 13.2 g/dL
Ht (6 h): 40.2%
Lym (6 h): 70.4%
MCH (6 h): 21.2 pg
MCHC (6 h): 32.9%
MCV (6 h): 64.4 fL
Mono (6 h): 9.4%
Neu (6 h): 19%
PT (6 h): 12.4 s
Plat (6 h): 113.6 x10_4/uL
RBC (6 h): 625.4 x10_4/ul
Ret (6 h): 9.1%
WBC (6 h): 94.9 x10_2/uL
KIDNEY_L (6 h): 0.9 g
KIDNEY_R (6 h): 0.9 g
KIDNEY_TOTAL (6 h): 1.8 g
LIVER (6 h): 8.2 g
A/G (6 h): 2.2
ALP (6 h): 729.4 IU/L
ALT (6 h): 29.8 IU/L
AST (6 h): 62.4 IU/L
BUN (6 h): 10.2 mg/dL
CRE (6 h): 0.6 mg/dL
Ca (6 h): 10.4 mg/dL
Cl (6 h): 104.4 meq/L
DBIL (6 h): 0.002 mg/dL
GLC (6 h): 179.6 mg/dL
IP (6 h): 9 mg/dL
K (6 h): 4.9 meq/L
LDH (6 h): 76 IU/L
Na (6 h): 137.2 meq/L
PL (6 h): 132.2 mg/dL
RALB (6 h): 3.8 g/dL
TBIL (6 h): 0.4 mg/dL
TC (6 h): 80.2 mg/dL
TG (6 h): 41.4 mg/dL
TP (6 h): 5.6 g/dL
gamma-GTP (6 h): 1.2 IU/L
TERMINAL_BW (9 h): 186.4 g
APTT (9 h): 16.8 s
Bas (9 h): 0%
Eos (9 h): 0.6%
Fbg (9 h): 216.2 mg/dL
Hb (9 h): 12.8 g/dL
Ht (9 h): 39.3%
Lym (9 h): 79.2%
MCH (9 h): 21.2 pg
MCHC (9 h): 32.5%
MCV (9 h): 65.1 fL
Mono (9 h): 6.2%
Neu (9 h): 13.8%
PT (9 h): 12.3 s
Plat (9 h): 102.7 x10_4/uL
RBC (9 h): 606 x10_4/ul
Ret (9 h): 9.4%
WBC (9 h): 94.1 x10_2/uL
KIDNEY_L (9 h): 0.9 g
KIDNEY_R (9 h): 0.9 g
KIDNEY_TOTAL (9 h): 1.7 g
LIVER (9 h): 7.8 g
A/G (9 h): 2.3
ALP (9 h): 794.4 IU/L
ALT (9 h): 32 IU/L
AST (9 h): 61.6 IU/L
BUN (9 h): 11.6 mg/dL
CRE (9 h): 0.5 mg/dL
Ca (9 h): 10.3 mg/dL
Cl (9 h): 103.8 meq/L
DBIL (9 h): 0.01 mg/dL
GLC (9 h): 180 mg/dL
IP (9 h): 9.8 mg/dL
K (9 h): 4.4 meq/L
LDH (9 h): 78.4 IU/L
Na (9 h): 137.4 meq/L
PL (9 h): 138.6 mg/dL
RALB (9 h): 3.8 g/dL
TBIL (9 h): 0.4 mg/dL
TC (9 h): 84.4 mg/dL
TG (9 h): 35.4 mg/dL
TP (9 h): 5.5 g/dL
gamma-GTP (9 h): 1.6 IU/L
TERMINAL_BW (24 h): 198.9 g
APTT (24 h): 16.7 s
Bas (24 h): 0%
Eos (24 h): 0.8%
Fbg (24 h): 219.6 mg/dL
Hb (24 h): 13.3 g/dL
Ht (24 h): 40.1%
Lym (24 h): 78.6%
MCH (24 h): 22 pg
MCHC (24 h): 33.2%
MCV (24 h): 66.3 fL
Mono (24 h): 9.4%
Neu (24 h): 11.4%
PT (24 h): 12.3 s
Plat (24 h): 102.8 x10_4/uL
RBC (24 h): 606.4 x10_4/ul
Ret (24 h): 8.7%
WBC (24 h): 127.7 x10_2/uL
KIDNEY_L (24 h): 0.9 g
KIDNEY_R (24 h): 0.9 g
KIDNEY_TOTAL (24 h): 1.8 g
LIVER (24 h): 9.7 g
A/G (24 h): 2.1
ALP (24 h): 891 IU/L
ALT (24 h): 38.8 IU/L
AST (24 h): 68.6 IU/L
BUN (24 h): 17 mg/dL
CRE (24 h): 0.5 mg/dL
Ca (24 h): 10.6 mg/dL
Cl (24 h): 103.8 meq/L
DBIL (24 h): 0.01 mg/dL
GLC (24 h): 179.6 mg/dL
IP (24 h): 7.6 mg/dL
K (24 h): 5.3 meq/L
LDH (24 h): 84.2 IU/L
Na (24 h): 136.6 meq/L
PL (24 h): 157.6 mg/dL
RALB (24 h): 3.9 g/dL
TBIL (24 h): 0.3 mg/dL
TC (24 h): 85.6 mg/dL
TG (24 h): 110.8 mg/dL
TP (24 h): 5.8 g/dL
gamma-GTP (24 h): 1.6 IU/L
